Reference: US20240108740A1, “THERAPEUTIC COMPOSITIONS INCLUDING SPN10 AND USES THEREOF” (Stealth BioTherapeutics Inc., priority 2022, published 2024)
Residues, ends and D or L forms follow the SMILES beside them.

Assays:
[1] = tested on: mice; assay: Example 57: Ang II-induced hypertensive cardiomyopathy; assay type: in vivo, mouse
Experimental: Mouse experiments, drug delivery, echocardiography and blood pressure measurement. Six to ten mice will be included in each experimental group (Saline, Ang II, Ang II+peptide conjugate, Ang II+aromatic-cationic peptide, Ang II+SPN10, Ang II+SPN10+aromatic-cationic peptide, WT, Gαq, Gαq+peptide conjugate, Gαq+aromatic-cationic peptide, Gαq+SPN10, Gαq+SPN10+aromatic-cationic peptide). A pressor dose of Ang II (1.1 mg/kg/d) will be continuously administered for 4 weeks using subcutaneous Alzet 1004 osmotic minipumps, either alone or in the presence of with peptide conjugates (3 mg/kg/d), aromatic-cationic peptides (an equivalent molar dose of aromatic-cationic peptide based on concentration of the aromatic-cationic peptide administered in the peptide conjugate group), SPN10(s) (an equivalent molar dose of SPN10 based on concentration of SPN10 administered in the peptide conjugate group), or SPN10(s) in combination with aromatic-cationic peptides (e.g., an equivalent molar dose of SPN10 based on the concentration of SPN10 administered in the peptide conjugate treatment group and an equivalent molar dose of aromatic-cationic peptide based on the concentration of aromatic-cationic peptide administered in the peptide conjugate treatment group). Echocardiography will be performed at baseline and 4 weeks after pump implantation using a Siemens Acuson CV-70 equipped with a 13 MHz probe. […] MTI will be calculated as the ratio of the sum of isovolemic contraction and relaxation time to LV ejection time. […]
Blood pressure will be measured in a separate group of mice by telemetry using an intravascular catheter PA-C 10 (DSI, MN), in which measurement will be performed every three hours starting from 2 days before pump placement until 2 days after Ang pump placement. […]
Quantitative Pathology. […] Quantitative analysis of fibrosis will be performed by measuring the percentage of blue-staining fibrotic tissue relative to the total cross-sectional area of the ventricles. […]

[2] = tested on: N2A cells; assay: Example 23: caspase activity (FLICA kit); assay type: cell-based; set-up: dose or concentration left out as unconfirmed; details: 12 hours
Experimental: N2A cells will be grown on 96-well plates, treated with t-BHP (0.05 mM) in the presence of vehicle, peptide conjugates, aromatic-cationic peptides, or SPN10(s) with or without aromatic-cationic peptides at 37° C. for 12-24 hours. All treatments will be carried out in quadruplicate. N2A cells will be incubated with t-BHP ([…]) alone or in the presence of peptide conjugates, aromatic-cationic peptides, or SPN10(s) with or without aromatic-cationic peptides at 37° C. for 12 hours. Cells will be gently lifted from the plates with a cell detachment solution (Accutase, Innovative Cell Technologies, Inc., San Diego, CA, U.S.A.) and will be washed twice in PBS. Caspase activity will be assayed using a FLICA kit (Immunochemistry Technologies LLC, Bloomington, MN). According to the manufacturer's recommendation, cells will be resuspended (approx. 5×10^6 cells/mL) in PBS and labeled with pan-caspase inhibitor FAM-VAD-FMK for 1 hour at 37° C. under 5% CO2 while protected from light. Cells will then be rinsed to remove the unbound reagent and fixed. Fluorescence intensity in the cells will be measured by a laser scanning cytometer (Beckman-Coulter XL, Beckman Coulter, Inc., Fullerton, CA, U.S.A.) using the standard emission filters for green (FL1). For each run, 10,000 individual events will be collected and stored in list-mode files for off-line analysis.

[3] = tested on: neonatal cardiomyocytes; assay: Example 57: Ang II-induced mitochondrial ROS (Mitosox, flow cytometry); assay type: cell-based, mouse; details: Angiotensin II 1 μM, 3 hours
Experimental: Ventricles from mouse neonates younger than 72 hours will be dissected, minced, and enzymatically digested with Blendzyme 4 (45 mg/mL, Roche). After enzymatic digestion, cardiomyocytes will be enriched using differential pre-plating for 2 hours, and seeded on fibronectin-coated culture dishes for 24 hours in DMEM (Gibco) with 20% Fetal Bovine Serum (Sigma) and 25 μM Arabinosylcytosine (Sigma). Cardiomyocytes will be stimulated with Angiotensin II (1 μM) for 3 hours in serum-free DMEM containing 0.5% insulin transferrin-selenium (Sigma), 2 mM glutamine, and 1 mg/mL BSA. […] Samples will be analyzed using excitation/emission of 488/625 nm by flow cytometry. Flow data will be analyzed using FCS Express (De Novo Software, Los Angeles, CA, U.S.A.), and presented as histogram distributions of Mitosox fluorescence intensity.

N=C(N)NCCC[C@H](NC(=O)[C@@H](N)Cc1c[nH]c2ccccc12)C(=O)N[C@@H](Cc1c[nH]c2ccccc12)C(=O)N[C@@H](CCCCN)C(N)=O [SPN10, H-L-Trp-L-Arg-L-Trp-L-Lys-NH2] (H-WRWK-NH2)
Ang II-induced ventricular fibrosis (trichrome) ([1]; 4 weeks of Ang II): fully attenuated | cardiac mitochondrial protein carbonyls ([1]; 4 weeks of Ang II): significantly reduce cardiac mitochondrial protein carbonyls | Ang II-induced cardiomyopathy ([1]; Ang II 1.1 mg/kg/d, 4 weeks): ameliorate Ang II-induced cardiomyopathy | increase in caspase activity by t-BHP [2]: dose-dependently inhibited | Ang II-induced Mitosox fluorescence (mitochondrial ROS) [3]: reduce Ang II-induced fluorescence to the level similar to that of saline-treated control cardiomyocytes
